Series [1] can be described thus: Solution stability of Sc^III complexes (alkaline solution, excess oxalate). The series is classed as physicochemical. The settings on record: slowly decompose in strongly alkaline solutions or under excess oxalate, yielding insoluble Sc^III oxalate or hydroxide. How it is done: The NMR experiments were carried out on the Bruker Avance III 600 (with a cryoprobe), Bruker Avance III HD 400 or Varian VNMRS 300 MHz or Varian Unity Inova-400 spectrometers in 5 mm tubes. Chemical shifts are given in ppm, and the coupling constants are in Hz. All NMR spectra were collected at 25 °C. The shifts were referenced with external standards: 0.1% tBuOH in D2O (^1H δ 1.25 ppm, ^13C δ 30.30 ppm). External reference for ^45Sc was 0.1 M solution of Sc(ClO4)3 in 1 M aq. HClO4. The pH of samples was adjusted with diluted aq. HCl or aq. LiOH (∼0.5%), or maintained with 0.25 M imidazole/HCl buffer. Binary complexes were prepared by mixing solid ligands (typically at a final concentration of 25 mM) with standardized ScCl3 solution in Sc/L 1:1 or 1:2 molar ratios. Ternary complexes with oxalate anions were studied by mixing a lithium(I) oxalate aq. solution (25 mM) and variable amounts of stock solutions (200 mM) of Sc^III complexes with the studied ligands.

Series [2] can be described thus: Potentiometric determination of stability constants of Sc^III complexes. The series is classed as physicochemical. The settings on record: for log K, [Sc(L)] + HL ↔ [M(HL)(L)]: I = 0.1 M NMe4Cl, coordination of second ligand molecule. How it is done: Potentiometry was carried out according to the previously published procedures; for the preparation of stock solutions and chemicals, equipment, electrode system calibration, titration procedures and data treatment, see refs – . Throughout the paper, pH means −log[H^+]. The protonation and stability constants were determined in 0.1 M (NMe4)Cl at 25.0 °C with pK w = 13.81. The Sc^III–H3nota system was studied by in-cell titrations from data obtained in the pH range 1.6–12 with ∼40 points per titration and four parallel titrations (c L = 0.004 M, c Sc = 0.004 or 0.002 M). The Sc^III–H2 L ^1 and Sc^III–H2 L ^2 systems were studied by a combination of the out-of-cell and in-cell methods. The out-of-cell method was performed at 1:1 ligand-to-metal ratio (c L = c Sc = 0.004 M, pH 1.5–5.0, 15–25 points per titration), and the in-cell method was performed at 1:1 and 2:1 ligand-to-metal ratios (c L = c Sc = 0.004, pH 5.0–12.0 or until precipitation of hydroxide, 15–20 points per titration; or c L = 0.004 M, c M = 0.002 M, pH 2.0–11.5, ∼40 points per titration). […] Stability constants for the Sc^III–OH^– system were taken from the literature. Protonation constants of ligands were adopted from literature–H3nota: 13.17, 5.74, 3.22, 1.96, 0.70; H2 L ^1 : 13.03, 4.24, 2.04, 0.67; H2 L ^2 : 12.93, 4.91, 2.48, 0.92.
High thermodynamic stability of complexes is an important property of metal complexes used in radio medicine. Thus, stability constants of the Sc^III complexes with the studied chelators were determined by potentiometry. Complexation of Sc^III by H3nota was fast, and thus, it was studied by the direct titration technique (in-cell method). Complexation of Sc^III by H2 L ^1 and H2 L ^2 was slower in the acidic region (pH < 3) and, thus, the batch titrations (out-of-cell method) had to be applied. In addition, the systems were studied in-cell in the neutral and weakly alkaline regions. The strongly alkaline region cannot be studied in the Sc^III–H2 L ^1 and Sc^III–H2 L ^2 systems due to decomposition of the complexes and precipitation of Sc^III hydroxide.

For series [3] the following is noted: comparison table; literature value; cited from earlier work.
For series [4] the following is noted: comparison table; literature value; cited from earlier work. The source holds these as a separate data set.
The conditions of series [5]: comparison table; literature value; cited from earlier work. This is another data set of the same source.
For series [6] the following is noted: comparison table; literature value; cited from earlier work. This is another data set of the same source.
For series [7] the following is noted: comparison table; literature value; cited from earlier work. The source holds these as a separate data set.
The conditions of series [8]: Sc^III complexes of other ligands; literature values; cited from earlier work.

Data on six compounds can be found in article PMC12648657, “Sc(III) Complexes of 1,4,7-Triazacyclononane-1,4,7-triacetic Acid and Its Monoamides” (Inorganic Chemistry, 2025).

Turning to `CCNC(=O)CN1CCN(CC(=O)O)CCN(CC(=O)O)CC1` [H2 L ^1], in series [1], the “Stability of Sc^III complex in solution” value is given as “limited stability”. In series [2] (I = 0.1M (NMe4)Cl, 25 °C), the “Overall stability constant logβ, Sc + L ⇄ [Sc(L)]” value is 16.64(1); the “log K, Sc + L ↔ [Sc(L)]” value came out at 16.64; the “log K, [Sc(L)(OH)] + H+ ↔ [M(L)(H2O)]” value came out at 7.36. Moreover, the “log K, [Sc(L)] + HL ↔ [M(HL)(L)]” value in series [2] (25 °C) is 2.86. In series [3], the “Stability constant log K ML, Cu^II” value is 21.37. In addition, the “Stability constant log K ML, Zn^II” value in series [4] is recorded as 18.89.

As to `O=C(O)CN1CCN(CC(=O)O)CCN(CC(=O)O)CC1` [H3nota, 1,4,7-Triazacyclononane-1,4,7-triacetic Acid], in series [2] (I = 0.1M (NMe4)Cl, 25 °C), the “Overall stability constant logβ, Sc + 2 L + H+ ⇄ [Sc(HL)(L)]” value is given as 35.78(6); the “Overall stability constant logβ, Sc + L + H2O ⇄ [Sc(L)(OH)] + H+” value is on record as 11.73(2); the “Overall stability constant logβ, Sc + L ⇄ [Sc(L)]” value was 19.50(1); the “log K, Sc + L ↔ [Sc(L)]” value was 19.50. In addition, the “log K, [Sc(L)(OH)] + H+ ↔ [M(L)(H2O)]” value in series [2] (I = 0.1M (NMe4)Cl, 25 °C) came to 7.77. The “log K, [Sc(L)] + HL ↔ [M(HL)(L)]” value in series [2] (25 °C) was determined as 3.11. Also, the “Stability constant log K ML, Sc^III” value in series [2] (comparison table) was 19.50. In series [5], the “Stability constant log K ML, Pb^II” value is reported as 18.18. For the same compound, the “Stability constant log K ML, Cu^II” value in series [3] is on record as 23.33. In addition, the “Stability constant log K ML, Ga^III” value in series [6] is 29.60. Besides, the “Stability constant log K ML, Cd^II” value in series [7] was 17.87. Further, in series [4], the “Stability constant log K ML, Zn^II” value was 22.32.

In the case of `O=C(O)CN1CCN(Cc2cccc(C(=O)O)n2)CCN(CP(=O)(O)O)CC1` [H4mpatcn-P], in series [8], the “log K [M(L)] of Sc^III complex” value was 21–26.

Regarding `O=C(O)CN1CCN(CC(=O)O)CCN(Cc2cccc(P(=O)(O)O)n2)CC1` [H4mpatcn-PyP], in series [8], the “log K [M(L)] of Sc^III complex” value is 21–26.

In the case of `O=C([O-])CN(CCN(CC(=O)[O-])CC(=O)[O-])CCN(CC(=O)[O-])CC(=O)[O-].[Sc+3]` [[Sc(dtpa)]^2–], the “log K [M(L)] of Sc^III complex” value in series [8] is listed as 27.43.

Regarding `O=C([O-])CN1CCN(CC(=O)[O-])CCN(Cc2cccc(C(=O)[O-])n2)CC1.[Sc+3]` [[Sc(mpatcn)]], in series [8], the “log K [M(L)] of Sc^III complex” value is listed as 21–26.
